Where two headings read alike, the source gives them in different places. Positions of bridges follow the written chain, without caps; N, C: chain ends. Non-standard residues stand in square brackets, D forms with d. Residues, ends and D or L forms follow the SMILES beside them. *: point of attachment. Chlorambucil = O=C(CCCc1ccc(N(CCCl)CCCl)cc1)*; NH(4-Br-phenethyl) = Brc1ccc(CCN*)cc1; X1 = O=C(CCCc1ccc(N(CCO)CCCl)cc1)*; 1Naphthoyl = O=C(c1cccc2ccccc12)*; Bz = O=C(c1ccccc1)*; NHPr = CCCN*
Key:
[1] = biological target: T1, BBN receptor (Homo sapiens, UniProt P30550); assay: Cytosolic Ca++ assay in SCLC cell line NCI-H345; type: cell-based; parameters: key: antagonized (A); had no effect (--) on the ability of 10 nM BBN to; conditions: compound 10 μM; 10 nM BBN elevation of cytosolic Ca++
T1 construct: endogenous in cells; host or cells: NCI-H345 (human SCLC)
Procedure: SCLC cell line NCI-H345 was cultured for two days in medium containing 10^-8 M hydrocortisone, 5 μg/ml bovine insulin, 10 μg/ml human transferrin, 10^-8 M β-estradiol and 3×10^-8 M Na2 SeO3. The cells were harvested and washed, resuspended in medium containing 20 mM HEPES, pH 7.4, and loaded with 5 μM Fura 2 AM (Calbiochem) for 30 minutes. The cells were centrifuged at 150×g for 10 minutes to remove extracellular dye and resuspended and placed in a spectrofluorometer cell equipped with stirring and 37° C. heating. The emission was read at 510 nm with 340 excitation (Moody et al., Biochem. Biophys. Res. Commun. 147:189 (1987)). The response of compounds at 5 μM was measured initially as a screen and compared to that of 10 nM BBN. The response of varying concentrations of peptide (nM to μM) in the presence of 10 nM BBN was determined.

[2] = tested on: NCI-H345; assay: Clonagenic assay, colony formation of NCI-H345; type: cell-based, human; parameters: key to Growth: significantly reduced (R); had no effect (--) on th; conditions: compound 1 μM; clonal growth of a human tumor cell line
Procedure: The effect of 1 to 1000 nM concentration of peptides on growth of NCI-H345 colonies stimulated by 10 nM BBN was measured in the agarose cloning system (Mahoud et al., Cancer Res. 51:1798 (1991); Staley et al., Peptides 12:145-149 (1991)). […] On the day of the assay, cells were harvested, centrifuged and suspended in the buffer. The agarose cloning system consisted of 3 ml of 0.5% agarose in SIT medium with 5% fetal bovine serum in six well plates. To a top layer, consisting of 3 ml HITES medium in 0.3% agarose, the peptides at two times concentration and 6×10^4 single viable cells, were added. For each peptide concentration, triplicate wells were plated. After two weeks, 1 ml of 0.1% p-iodo-nitrotetrazolium violet was added, and after 16 hours at 37° C., the plates were screened for colony formation; the number of colonies larger than […] in diameter were counted using a Bausch and Lomb Omnicon image analysis system.

[3] = biological target: T1, BBN receptor; assay: Inhibition of [125I]Tyr4-BBN binding to SCLC NCI-H345 membranes; conditions: for inhibition of BBN binding to SCLC membranes (in words): radiolabelled Tyr4-BBN
Procedure: (§1) Acinar cells from rat pancreas bind BBN and secrete amylase when treated with BBN. The ability of potential antagonists to bind to rat pancreatic acinar cells was examined by determining the ability of the compounds to inhibit the binding of radiolabelled BBN. […] Finally, antagonist activity of the compounds was determined by measuring the ability of compounds to prevent the release of amylase from cells in response to BBN. […] This cell line was also used to evaluate biological activities of potential antagonists derived from the structures of BBN and GRP. The binding of synthetic compounds to cellular membranes prepared from NCI-H345 was determined. The ability of potential antagonists to block the BBN-stimulated increase in cytosolic levels of Ca^++ was determined. Compounds showing inhibition were further tested to determine the effect on growth of two human SCLC cell lines in culture.
Potential antagonists were also evaluated for their ability to inhibit the binding of radiolabelled Tyr^4 -BBN to SCLC membranes and for their effects on BBN signal transduction in SCLC cells.

[4] = biological target: T2, BBN receptor (Rattus norvegicus, UniProt P52500); type: cell-based; conditions: PTC 821 1 μM
Procedure: (§2) Dispersed acinar cells from rat pancreas were prepared as indicated above.

[5] = biological target: T2, BBN receptor; assay: Stimulation of amylase release from rat pancreatic acinar cells by the compound alone (agonist test); type: cell-based
[6] = biological target: T2, BBN receptor; assay: Inhibition of bombesin-stimulated amylase release from rat pancreatic acini; type: cell-based; conditions: half-maximal inhibition of bombesin-stimulated amylase release from acini; mean ± s.e.m.
Procedure: as §1
The incubation solution contained 1% albumin and the wash solution contained 0.2% albumin. The solution was equilibrated with 100% O2. Dispersed acini were suspended in 20 ml of solution. Samples of 1 ml were incubated in the presence of various concentrations of compounds in the presence of 1 nM bombesin. After the first incubation the samples were washed 4 times with wash solution at 4° C. The acini were then resuspended in fresh incubation buffer and incubated at 37° C. Amylase release was measured by the Phadebas reagent. Amylase secretion during a given incubation was expressed as the percentage of amylase present in the acini at the beginning of that incubation that was released into the extracellular medium.

[7] = biological target: T3, CCK Receptor (Rattus norvegicus, UniProt P30551); assay: Specificity test, CCK-stimulated amylase secretion of rat pancreatic acinar cells after wash; conditions: PTC 821 1 μM
T3 sequence (P30551 1-444): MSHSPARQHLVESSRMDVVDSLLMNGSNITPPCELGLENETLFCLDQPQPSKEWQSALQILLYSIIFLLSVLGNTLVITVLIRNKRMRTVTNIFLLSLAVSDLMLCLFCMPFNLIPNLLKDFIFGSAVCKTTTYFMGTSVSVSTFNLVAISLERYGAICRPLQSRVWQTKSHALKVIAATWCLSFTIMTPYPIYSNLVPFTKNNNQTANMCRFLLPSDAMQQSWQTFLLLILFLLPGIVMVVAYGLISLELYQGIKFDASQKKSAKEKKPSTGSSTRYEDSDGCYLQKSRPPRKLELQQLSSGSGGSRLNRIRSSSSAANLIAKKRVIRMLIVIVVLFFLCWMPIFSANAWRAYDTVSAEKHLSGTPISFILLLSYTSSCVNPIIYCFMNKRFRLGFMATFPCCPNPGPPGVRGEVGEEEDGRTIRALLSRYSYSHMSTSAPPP
Procedure: as §2

[8] = biological target: T2, BBN receptor; assay: Inhibition of 125I bombesin binding to rat pancreatic acinar cells; conditions: inhibition of 125I bombesin binding; IC50 divided by radioligand concentration
Procedure: Inhibition of equilibrium binding of ^125 I labeled bombesin to acinar membranes by the compounds was determined. The Kd was determined by dividing IC50 (the concentration of synthetic compound required to inhibit 50% of the specific binding of labelled BBN) by the concentration of radiolabeled peptide.

[9] = 50% inhibition of specific [125I]Tyr4-BBN binding, NCI-H345, read-out: IC50

T1 sequence (P30550 whole entry): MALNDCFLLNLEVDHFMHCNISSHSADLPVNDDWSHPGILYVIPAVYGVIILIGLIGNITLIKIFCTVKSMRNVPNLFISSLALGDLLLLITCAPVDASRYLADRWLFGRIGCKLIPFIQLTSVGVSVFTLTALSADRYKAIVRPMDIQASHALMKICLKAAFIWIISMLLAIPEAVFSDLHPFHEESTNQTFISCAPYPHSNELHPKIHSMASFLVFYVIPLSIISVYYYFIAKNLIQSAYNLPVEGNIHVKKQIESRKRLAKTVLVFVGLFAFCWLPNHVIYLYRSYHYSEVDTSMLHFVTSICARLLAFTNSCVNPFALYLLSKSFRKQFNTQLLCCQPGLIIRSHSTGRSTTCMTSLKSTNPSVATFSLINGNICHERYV
T2 sequence (P52500 whole entry): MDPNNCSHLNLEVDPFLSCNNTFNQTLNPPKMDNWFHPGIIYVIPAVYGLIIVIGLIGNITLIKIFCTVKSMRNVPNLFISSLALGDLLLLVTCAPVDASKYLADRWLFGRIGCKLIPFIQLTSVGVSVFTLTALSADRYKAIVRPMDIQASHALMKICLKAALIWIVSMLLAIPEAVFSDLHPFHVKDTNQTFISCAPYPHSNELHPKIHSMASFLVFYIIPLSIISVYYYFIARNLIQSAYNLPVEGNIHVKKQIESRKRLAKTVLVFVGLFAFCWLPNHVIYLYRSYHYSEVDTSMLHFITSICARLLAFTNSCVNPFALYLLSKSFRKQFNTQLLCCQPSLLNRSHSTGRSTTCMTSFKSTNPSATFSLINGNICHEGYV

Structure (SMILES) | Ca++ effect [1] | IC50 [3, 9] [µM] | EC50 [5] [µM] | IC50 [6] [µM] | IC50 [3] [µM] | Kd [8] [µM] | further results
CCCNC(=O)[C@H]1CCC(=O)NCCCC[C@H](NC(C)=O)C(=O)N[C@@H](Cc2c[nH]c3ccccc23)C(=O)N[C@@H](C)C(=O)N[C@@H](C(C)C)C(=O)N[C@H](C)C(=O)N[C@@H](Cc2c[nH]cn2)C(=O)N1 [PCT 812] (Ac-KWAV[dA]H[dE]-NHPr; lactam 1-7) | A | 4 |  |  |  |  | Growth [2]: R; inhibition of BBN binding to SCLC membranes (in words) [3]: only weak inhibition of BBN binding
CCOC(=O)[C@H](CC(C)C)NC(=O)[C@H](Cc1c[nH]cn1)NC(=O)[C@@H](C)NC(=O)[C@@H](NC(=O)[C@H](C)NC(=O)[C@H](Cc1c[nH]c2ccccc12)NC(=O)[C@H](Cc1c[nH]cn1)NC(=O)CCCc1ccc(N(CCCl)CCCl)cc1)C(C)C [PTC 821] (Chlorambucil-HWAV[dA]HL-OEt) |  |  | > 3 | 0.0063 ± 0.0009 | 0.008 | 0.0032 ± 0.0005 | Percent BBN Receptor Activity Recovered ([4]; 1 Min post-wash): 5%; Percent BBN Receptor Activity Recovered ([4]; 30 Min post-wash): 18%; Percent BBN Receptor Activity Recovered ([4]; 60 Min post-wash): 25%; changes in the appearance of the cells indicative of toxicity ([4]; rat pancreatic acinar cells): no changes in the appearance of the cells; Percent CCK Receptor Activity Recovered ([7]; 1 Min post-wash): 107%; Percent CCK Receptor Activity Recovered ([7]; 30 Min post-wash): 115%; Percent CCK Receptor Activity Recovered ([7]; 60 Min post-wash): 89%
CCOC(=O)[C@H](CC(C)C)NC(=O)[C@H](Cc1c[nH]cn1)NC(=O)[C@@H](C)NC(=O)[C@@H](NC(=O)[C@H](C)NC(=O)[C@H](Cc1c[nH]c2ccccc12)NC(=O)[C@H](CCC(N)=O)NC(=O)[C@H](CC(N)=O)NC(=O)CCCc1ccc(N(CCO)CCCl)cc1)C(C)C [PTC 815B] (X1-NQWAV[dA]HL-OEt) |  |  |  |  | 0.045 |  | 
CC(=O)N[C@H]1CCCCNC(=O)[C@H](CC(C)C)NC(=O)[C@H](Cc2c[nH]cn2)NC(=O)[C@@H](C)NC(=O)[C@H](C(C)C)NC(=O)[C@H](C)NC(=O)[C@H](Cc2c[nH]c3ccccc23)NC(=O)[C@H](CCC(N)=O)NC(=O)[C@H](CC(N)=O)NC1=O [PTC 806] (Ac-KNQWAV[dA]HL; lactam 1-C) |  |  | > 3 | > 3 |  | > 3 | 
CCOC(=O)[C@H](CC(C)C)NC(=O)[C@H](Cc1c[nH]cn1)NC(=O)[C@@H](C)NC(=O)[C@@H](NC(=O)[C@H](C)NC(=O)[C@H](Cc1c[nH]c2ccccc12)NC(=O)[C@H](CCC(N)=O)NC(=O)[C@H](CC(N)=O)NC(=O)CCCc1ccc(N(CCCl)CCCl)cc1)C(C)C [PTC 815] (Chlorambucil-NQWAV[dA]HL-OEt) |  |  | > 3 | 0.0085 ± 0.0005 | 0.035 | 0.0107 ± 0.0034 | 
CC(=O)N[C@@H]1CCCCNC(=O)[C@H](CC(C)C)NC(=O)[C@H](Cc2c[nH]cn2)NC(=O)[C@H](C)NC(=O)[C@H](C(C)C)NC(=O)[C@H](C)NC(=O)[C@H](Cc2c[nH]c3ccccc23)NC(=O)[C@H](CCC(N)=O)NC(=O)[C@H](CC(N)=O)NC1=O [PTC 805] (Ac-[dK]NQWAVAHL; lactam 1-C) | -- | > 10 | > 3 | > 3 |  | > 3 | 
CC(C)C[C@@H]1NC(=O)[C@H](Cc2c[nH]cn2)NC(=O)[C@@H](C)NC(=O)[C@H](C(C)C)NC(=O)[C@H](C)NC(=O)[C@H](Cc2c[nH]c3ccccc23)NC(=O)[C@H](CCC(N)=O)NC(=O)[C@H](CC(N)=O)NC(=O)[C@H](Nc2ccc([N+](=O)[O-])cc2[N+](=O)[O-])CCCCNC1=O [PTC 809] | -- | > 10 | > 3 | > 3 |  | > 3 | 
CC(C)C[C@@H]1NC(=O)[C@H](Cc2c[nH]cn2)NC(=O)[C@@H](C)NC(=O)[C@H](C(C)C)NC(=O)[C@H](C)NC(=O)[C@H](Cc2c[nH]c3ccccc23)NC(=O)[C@H](CCC(N)=O)NC(=O)[C@H](CC(N)=O)NC(=O)[C@H](NC(=O)c2ccccc2)CCCCNC1=O [PTC 807] (Bz-[dK]NQWAV[dA]HL; lactam 1-C) | -- |  |  |  |  |  | 
CC(=O)N[C@H]1CCCCNC(=O)[C@H](CC(C)C)NC(=O)[C@H](Cc2c[nH]cn2)NC(=O)[C@H](C)NC(=O)[C@H](C(C)C)NC(=O)[C@H](C)NC(=O)[C@H](Cc2c[nH]c3ccccc23)NC(=O)[C@H](CCC(N)=O)NC(=O)[C@H](CC(N)=O)NC1=O [PTC 803] (Ac-KNQWAVAHL; lactam 1-C) | -- | > 10 | > 3 | > 3 |  | > 3 | 
CC(=O)N[C@@H]1CCCCNC(=O)[C@H](CC(C)C)NC(=O)[C@H](Cc2c[nH]cn2)NC(=O)[C@@H](C)NC(=O)[C@H](C(C)C)NC(=O)[C@H](C)NC(=O)[C@H](Cc2c[nH]c3ccccc23)NC(=O)[C@H](CCC(N)=O)NC(=O)[C@H](CC(N)=O)NC1=O [PTC 804] (Ac-[dK]NQWAV[dA]HL; lactam 1-C) | -- | 6 | > 3 | > 3 |  | > 3 | inhibition of BBN binding to SCLC membranes (in words) [3]: only weak inhibition of BBN binding
CC(=O)N[C@@H](Cc1c[nH]cn1)C(=O)N[C@@H](Cc1c[nH]c2ccccc12)C(=O)N[C@@H](C)C(=O)N[C@H](C(=O)N[C@H](C)C(=O)N[C@@H](Cc1c[nH]cn1)C(=O)NCCc1ccc(Br)cc1)C(C)C [PTC 820] (Ac-HWAV[dA]H-{NH(4-Br-phenethyl)}) | -- |  | > 3 | > 3 | > 10 | > 3 | Growth [2]: --
CC(C)C[C@@H]1NC(=O)[C@H](Cc2c[nH]cn2)NC(=O)[C@@H](C)NC(=O)[C@H](C(C)C)NC(=O)[C@H](C)NC(=O)[C@H](Cc2c[nH]c3ccccc23)NC(=O)[C@H](CCC(N)=O)NC(=O)[C@H](CC(N)=O)NC(=O)[C@H](NC(=O)c2cccc3ccccc23)CCCCNC1=O [PTC 808] (1Naphthoyl-[dK]NQWAV[dA]HL; lactam 1-C) | -- |  |  |  |  |  | 

Reference: patent US5620955A, “Bombesin receptor antagonists and uses thereof” (Peptide Technologies Corporation, priority 1993, dated 1997)
